The values that follow come from patent US11633416B1, “Oral formulations of CD73 compounds” (ARCUS BIOSCIENCES, INC., priority 2020, dated 2023).

The series in a line: Oral exposure in cynomolgus monkeys, compound alone or with excipient in capsules; plasma by LC-MS/MS. In kind it is in vivo. Conditions: for Oral bioavailability using calcium chelating excipients: cynomolgus monkeys, capsules, versus compound alone. From the text:
The influence of different excipients on the bioavailability of Compound (Ia), Compound 2 and Compound 3 in cynomolgus monkeys was investigated. The excipients tested were sodium phytate, sodium citrate, sodium EDTA, cyclodextrin, sodium taurocholate, sodium polystyrene sulfate, sodium caprate, sodium phosphate, carbomer 971P and palmitoyl carnitine chloride. Generally, an appropriate quantity (as indicated in Table 1) of Compound (Ia), Compound 2 or Compound 3 and an excipient were mixed to homogeneity and transferred to capsules for dosing. In one example, Compound (Ia) (500 mg assay, 1.063 correction factor applied for to account for purity) and 2.75 g of sodium phytate (Sigma) were combined in a mortar and pestle. The mixture was ground to homogeneity then 530 mg of the white powder was transferred to enteric capsules (Size 0) prior to dosing.
[…] Compound (Ia), Compound 2 or Compound 3, either alone, or with excipient, in an enteric capsule was administered via an oral pet piller. Blood samples were collected from a peripheral vessel at designated time points, and centrifuged to obtain plasma.
Plasma samples obtained at each time point from the subjects were prepared by protein precipitation. An aliquot of 50 μL sample was added with 150 μL acetonitrile containing an internal standard ([[[(2R,3S,4R,5R)-5-[6-chloro-4-[[(1S)-2,2,2-trideuterio-1-(2-fluorophenyl)ethyl]amino]pyrazolo[3,4-b]pyridin-1-yl]-3,4-dihydroxyoxolan-2-yl]-dideuteriomethoxy]-hydroxyphosphoryl]methylphosphonic acid, 200 ng/mL in Acetonitrile). The mixture was vortexed for 15 min and then centrifuged at 4500 rpm for 15 min at 4° C. (Sorvall Legend XTR centrifuge, Thermo Scientific, Langenselbold, Germany). 80 μL of the resulting supernatant was transferred into a new plate and mixed with 160 μL water followed by LC-MS/MS analysis.
• API 4000 mass spectrometer (Applied Biosystems, Foster City, Calif.) • Shimadzu Nexera X^2 UHPLC System (Shimadzu Scientific Instruments, Canby, Oreg.) Column: SHISEIDO CAPCELL PAK INERT ADME S3 (2.00 mm×50 mm, Part No. 79001) Mobile Phase A: 8.6 mM Triethylamine, 100 mM HFIP (1,1,1,3,3,3-Hexafluoro-2-propanol) in Water Mobile Phase B: 8.6 mM Triethylamine, and 100 mM HFIP in [Acetonitrile:water (95:5, v/v) Needle wash (weak & strong): Acetone:MeCN:Water (80:20:20, v/v/v) Flow Rate: 0.50 mL/min HPLC Gradient:
• Ionization Mode: Electrospray (ESI) • Detection Mode: Negative MRM (Q1/Q3 transitions: m/z 579.0/157.0 for Compound (Ia) or Compound 3; m/z 584.0/157.0 for Internal Standard); (Q1/Q3 transitions m/z 562.2/157.0 for Compound 2; m/z 584.0/157.0 for Internal Standard)

The mark [1] stands for this setting: male, cynomolgus monkey, plasma, po, 50 mg, Table 3: dose 50 mg, dosed with 195 mg trisodium citrate and 3 mg SDS, enteric capsules.
The mark [2] stands for this setting: male, cynomolgus monkey, plasma, po, 50 mg, Table 3: dose 50 mg, dosed with 195 mg trisodium citrate and 3 mg SDS, enteric capsules, read-out: Cmax.
The mark [3] stands for this setting: male, cynomolgus monkey, plasma, po, 50 mg, Table 4: dose 50 mg, dosed with 275 mg sodium phytate, enteric capsules.
The mark [4] stands for this setting: male, cynomolgus monkey, plasma, po, 50 mg, Table 4: dose 50 mg, dosed with 275 mg sodium phytate, enteric capsules, read-out: Cmax.
[5] abbreviates: male, cynomolgus monkey, plasma, po, 50 mg, enteric capsule, with 195 mg sodium citrate, 3 mg SDS, fasted.
Where [6] appears, read: male, cynomolgus monkey, plasma, po, 50 mg, enteric capsule, with 275 mg sodium phytate (Sigma-Aldrich, ≥5 mol sodium/mol), fasted.
Where [7] appears, read: male, cynomolgus monkey, plasma, po, 50 mg, oral, enteric capsule, dose 50 mg, with 195 mg sodium citrate, 3 mg SDS, fasted, read-out: Cmax.
[8] abbreviates: male, cynomolgus monkey, plasma, po, 50 mg, oral, enteric capsule, dose 50 mg, with 275 mg sodium phytate (Sigma-Aldrich, ≥5 mol sodium/mol), fasted, read-out: Cmax.
The mark [9] stands for this setting: oral, enteric capsule, dose 50 mg, with 275 mg sodium phytate (Sigma-Aldrich, ≥5 mol sodium/mol), fasted.

Read-outs that look alike come from different tables or passages of the source.

As a reminder, the AUC(0-inf) is the area under the concentration-time curve extrapolated to infinity. Low readings indicate less exposure, high ones more exposure. By Cmax is commonly meant the highest concentration seen after dosing.

Consider `C[C@H](Nc1cc(Cl)nc2c1cnn2[C@@H]1O[C@H](COP(=O)(O)CP(=O)(O)O)[C@@H](O)[C@H]1O)c1ccc(F)cc1` [Compound 3], for which the “Oral bioavailability using calcium chelating excipients” value is “Improved”. Moreover, the AUC(0-inf) under setting [1] amounted to 38700 ng·h/mL. The maximum concentration (Cmax) under setting [2] came out at 1320 ng/mL. This compound also showed an AUC(0-inf) under setting [3] of 149000 ng·h/mL. For the same compound, under setting [4], the Cmax is 3550 ng/mL.
As for `C[C@H](Nc1nc(Cl)nc2c1cnn2[C@@H]1O[C@H](COP(=O)(O)CP(=O)(O)O)[C@@H](O)[C@H]1O)c1ccccc1` [2 (Neutral)], the AUC(0-inf) (male, cynomolgus monkey, plasma, po, 50 mg, enteric capsule, with 195 mg sodium citrate, 6 mg sodium dodecyl sulfate (SDS), fasted) stood at 129000 ng·h/mL and the AUC(0-inf) (male, cynomolgus monkey, plasma, po, 50 mg, gelatin capsule, with 195 mg sodium citrate, 6 mg SDS, fasted) amounted to 151000 ng·h/mL. In addition, the Cmax (male, cynomolgus monkey, plasma, po, 50 mg, oral, enteric capsule, dose 50 mg, with 195 mg sodium citrate, 6 mg sodium dodecyl sulfate (SDS), fasted, read-out: Cmax) stood at 3140 ng/mL and the Cmax (male, cynomolgus monkey, plasma, po, 50 mg, oral, gelatin capsule, dose 50 mg, with 195 mg sodium citrate, 6 mg SDS, fasted, read-out: Cmax) amounted to 3180 ng/mL.
With `C[C@H](Nc1cc(Cl)nc2c1cnn2[C@@H]1O[C@H](COP(=O)(O)CP(=O)(O)O)[C@@H](O)[C@H]1O)c1ccc(F)cc1` [3 ( 3Na)], the AUC(0-inf) was 38700 ng·h/mL under setting [5] and 149000 ng·h/mL under setting [6]. Moreover, the Cmax is 1320 ng/mL under setting [7] and 3550 ng/mL under setting [8].
For the compound `C[C@H](Nc1nc(Cl)nc2c1cnn2[C@@H]1O[C@H](COP(=O)(O)CP(=O)(O)O)[C@@H](O)[C@H]1O)c1ccccc1` [2 (Na)], the total exposure AUC(0-inf) by setting is: (male, cynomolgus monkey, plasma, po, 10 mg, enteric capsule, neat, fasted) 918 ng·h/mL; (male, cynomolgus monkey, plasma, po, 10 mg, enteric capsule, with 195 mg sodium citrate, 3 mg SDS, fasted) 4880 ng·h/mL; (male, cynomolgus monkey, plasma, po, 10 mg, enteric capsule, with 195 mg sodium citrate, fasted) 8840 ng·h/mL; (male, cynomolgus monkey, plasma, po, 10 mg, enteric capsule, with 275 mg sodium phytate (Sigma-Aldrich), fasted) 6010 ng·h/mL; under setting [5], 67100 ng·h/mL; under setting [6], 105000 ng·h/mL. In addition, the Cmax is 161 ng/mL (male, cynomolgus monkey, plasma, po, 10 mg, oral, enteric capsule, dose 10 mg, neat, fasted, read-out: Cmax); 997 ng/mL (male, cynomolgus monkey, plasma, po, 10 mg, oral, enteric capsule, dose 10 mg, with 195 mg sodium citrate, 3 mg SDS, fasted, read-out: Cmax); 791 ng/mL (male, cynomolgus monkey, plasma, po, 10 mg, oral, enteric capsule, dose 10 mg, with 195 mg sodium citrate, fasted, read-out: Cmax); 824 ng/mL (male, cynomolgus monkey, plasma, po, 10 mg, oral, enteric capsule, dose 10 mg, with 275 mg sodium phytate (Sigma-Aldrich), fasted, read-out: Cmax); 2530 ng/mL under setting [7]; 2320 ng/mL under setting [8]. Also, the “Exposure Enhancement” value is, setting by setting: (oral, enteric capsule, dose 10 mg, with 195 mg sodium citrate, 3 mg SDS, relative to 10 mg dose of 2(Na) without absorption enhancer) 5.3-fold^e; (oral, enteric capsule, dose 10 mg, with 195 mg sodium citrate, relative to 10 mg dose of 2(Na) without absorption enhancer) 9.6-fold^e; (oral, enteric capsule, dose 10 mg, with 275 mg sodium phytate (Sigma-Aldrich), relative to 10 mg dose of 2(Na) without absorption enhancer) 6.6-fold^e.
As for `C[C@H](Nc1cc(Cl)nc2c1cnn2[C@@H]1O[C@H](COP(=O)(O)CP(=O)(O)O)[C@@H](O)[C@H]1O)c1ccccc1F` [Ia (Neutral), (((((2R,3S,4R,5R)-5-(6-chloro-4-(((S)-1-(2-fluorophenyl)ethyl)amino)-1H-pyrazolo[3,4-b]pyridin-1-yl)-3,4-dihydroxytetrahydrofuran-2-yl)methoxy)(hydroxy)phosphoryl)methyl)phosphonic acid], for the setting “oral, enteric capsule, dose 50 mg, with 275 mg sodium phytate (Sigma-Aldrich), relative to 50 mg Ia ( 3Na) without absorption enhancer”, the “Exposure Enhancement” value was 7.6-fold^b. For the same compound, under setting [9], the “AUC0-∞” value is 102,000 h*ng/mL and the Cmax was 2,790 ng/mL.
Turning to `C[C@H](Nc1cc(Cl)nc2c1cnn2[C@@H]1O[C@H](COP(=O)(O)CP(=O)(O)O)[C@@H](O)[C@H]1O)c1ccccc1F` [Compound (Ia), (((((2R,3S,4R,5R)-5-(6-chloro-4-(((S)-1-(2-fluorophenyl)ethyl)amino)-1H-pyrazolo[3,4-b]pyridin-1-yl)-3,4-dihydroxytetrahydrofuran-2-yl)methoxy)(hydroxy)phosphoryl)methyl)phosphonic acid], the “Oral bioavailability using calcium chelating excipients” value is recorded as “Improved”. Besides, under setting [1], the AUC(0-inf) came out at 22200 ng·h/mL. The Cmax under setting [2] is 922 ng/mL. Moreover, the AUC(0-inf) under setting [3] was 122000 ng·h/mL. Also, under setting [4], the Cmax is 3680 ng/mL.
